What was measured:
[1] = system: ARNT dimers; assay: Native gel analysis of total kidney lysates after Arnt pulldown (UUO mice); assay type: in vivo; details: UUO mice treated with FK506; without interaction with HIF1α, HIF2α or AHR
Description: Tissue and cells were homogenized in NP40 lysis buffer (Life technologies, Carlsbad, USA) supplemented with protease inhibitor cocktail (Roche, Basel, Switzerland). After sonication, protein samples were resolved by a 4-12% Bis-Tris polyacrylamide gel electrophoresis system (Novex, Carlsbad, USA) and transferred onto a nitrocellulose membrane (GE Healthcare, Freiburg, Deutschland), followed by a blocking step with 5% dry milk or 5% bovine serum albumin (BSA) in TBS-T (TBS pH 7.2, 0.1% Tween-20) to prevent unspecific bindings. After incubation with respective primary antibodies against ALK3 (ABD51, Merck Millipore, Billerica, USA) and ALK6 (ABD50, Merck Millipore, Billerica, USA), pSmad1/5/8 (13820, Cell Signaling, Danvers, USA), Arnt (3718, Cell Signaling, Danvers, USA), Fkbp12 (ab2918, Abcam Biochemicals, Cambridge, UK), NFATc1 (sc-7294, Santa Cruz Biotechnology, Dallas, USA), NFATc2 (sc-7295, Santa Cruz Biotechnology, Dallas, USA), β-actin (A5316, Sigma, St. Louis, USA) and Gapdh (5G4, HyTest, Turku, Finland), secondary HRP-conjugated antibodies were used (Dako, Glostrup, Denmark). Luminescence was detected by using chemiluminescent substrate (Cell Signaling, Danvers, USA) on a ChemiDoc XRS system (Bio-Rad, Hercules, USA). Native protein samples were prepared with Native PAGE Sample Prep kit (Novex, Carlsbad, USA) according to the manufacturer's instruction. […]

[2] = system: murine TECs; assay: Murine TEC cultures (MCT): mRNA expression (qRT-PCR), pSmad1/5/8 immunostaining, proliferation; assay type: cell-based, mouse
Protocol: HK-2 (ATTC, Manassas, USA) are immortalized proximal tubule epithelial cells derived from normal adult human kidney. The murine proximal tubular epithelial cell line MCT was generated from the renal cortex of SJL mice (75). All cells were routinely tested negative for the presence of mycoplasma contamination. None of the cell lines used in this manuscript is listed in the ICLAC and NCBI Biosample database of misidentified cell lines. Cells were cultured in Dulbecco's modified Eagle's (DMEM, Gibco, Carlsbad, USA) medium supplemented with 100 µg/mL penicillin, 100 µg/mL streptomycin and 10% heat-inactivated fetal bovine serum (FBS, Sigma, St. Louis, USA) at 37° C. in 5% CO2. For RNA extractions, cells were seeded in 6 well culture plates at 10^5 cells per well in antibiotic free standard growth medium. […] Cells were harvested for further analysis 6 hours after incubation. To examine de novo protein syntheses, cells were again plated in 6 well culture plates as initially described and then pre-treated with the translation blocker Cycloheximide (CHX, 10 μg/mL, Sigma, St. Louis, USA). After one hour of incubation, 200 pM FK506 was applied for additional 6 hours. One night before transfection, MCT cells were seeded in 6 well culture plates at a concentration of 1.5-2×10^5 per well in antibiotic-free DMEM (Gibco, Carlsbad, USA) supplemented with 10% heat-inactivated fetal bovine serum (FBS, Sigma, St. Louis, USA). For knockdown experiments, 60 pmol siRNA (Santa Cruz Biotechnology, Dallas, USA) or scrambled siRNA (scrRNA, Santa Cruz Biotechnology, Santa Cruz, USA) was transfected, for over-expression experiments, 2 μg plasmid DNA was transfected using Lipofectamine 2000 reagent (Invitrogen, Carlsbad, USA). After 4 hours of incubation, transfection medium was replaced by antibiotic-free medium and cells recovered overnight. For stimulation experiments, cells were stimulated the day after with […] FK506 (Abcam Biochemicals, Cambridge, UK) dissolved in DMSO and harvested after 6 hours of incubation for RNA and protein analysis. For SYBR-based real-time PCR, cDNA synthesis was performed by using DNase I digestion (Invitrogen, Carlsbad, USA) and SuperScript II Reverse Transcriptase (Invitrogen, Carlsbad, USA) according to the manufacturer's protocol. 1 μL of reverse-transcribed cDNA was added to the reaction mixture containing the primer pair (200 nmol/L each) and diluted 2× Fast SYBR Green Master Mix (Applied Biosystems, Carlsbad, USA) in a final volume of 20 μL for each PCR reaction. The real-time PCR reactions were performed in a 96-well reaction plate using the StepOne Plus Real-Time System (Applied Biosystems, Carlsbad, USA) and were done in triplicates. An initiation step at 95° C. for 20 seconds was followed by 40 cycles at 95° C. for 3 to seconds and 60° C. for 30 seconds, with one cycle of dissociation at 95° C. for 15 seconds, 60° C. for 60 seconds, and 95° C. for 15 seconds. The intercalation of SYBR Green dye and its fluorescent signal is directly proportional to the amount of amplified DNA and was transformed into the cycle threshold (Ct). For normalization, the Ct values of the housekeeping genes Gapdh and Actb were subtracted from the Ct values of the gene of interest to generate the dCt values. The relative expression levels were calculated using the equation 2^−ddCt.

Question: Which “formation of ARNT dimers in total kidney lysates” value [1] does the source give for `C=CC[C@@H]1/C=C(\C)C[C@H](C)C[C@H](OC)[C@H]2O[C@@](O)(C(=O)C(=O)N3CCCC[C@H]3C(=O)O[C@H](/C(C)=C/[C@@H]3CC[C@@H](O)[C@H](OC)C3)[C@H](C)[C@@H](O)CC1=O)[C@H](C)C[C@@H]2OC` [FK506, tacrolimus] here?
Answer: increased formation of ARNT dimers

Question: And the “induction of ALK3 transcription” value ([2]; TECs depleted for HIF1α (Hif1akd) or AHR (Ahrkd))?
Answer: preserved effectiveness

Question: What about the “mRNA expression levels of AR, ARNT, CEBPB, CREB1, GATA3, MAX (qRT-PCR)” value ([2]; TECs upon exposure to FK506) of the same compound?
Answer: increased

Question: And the “ALK3 transcription or nuclear pSmad1/5/8 accumulation” value ([2]; TECs with ARNT depleted (Arntkd))?
Answer: failed to induce

Question: What about the “ALK3 transcription and canonical BMP signaling responses (nuclear pSmad1/5/8)” value ([2]; TECs with Cycloheximide (CHX, 10 μg/mL)) of the same compound?
Answer: failed to induce

Question: And the “ARNT mRNA and protein levels” value ([2]; TECs with FKBP12 or YY1 depletion, FK506 supplemented)?
Answer: did not additionally induce

Question: And the “ALK3 transcription and BMP signaling responses” value ([2]; TECs with YY1 depleted (Yy1kd), FK506 supplemented)?
Answer: did not additionally induce

Question: And the ARNT transcription ([2]; cultured TECs, FK506 added to culture media)?
Answer: transcriptional ARNT induction

Question: And the pSmad1/5/8 ([2]; murine TECs)?
Answer: accumulation of pSmad1/5/8

From patent publication US12440479B2, “Prevention or treatment of chronic organ injury” (GEORG-AUGUST-UNIVERSITAET GOETTINGEN, STIFTUNG …, priority 2018, dated 2025)
